Laboratory results published in patent US11266655B2, “Methods and compositions for treating urea cycle disorders” (Camp4 Therapeutics Corporation, priority 2019, dated 2022).
Where two headings read alike, the source gives them in different places.

Key:
urea cycle genes = assay: RNA-seq of primary human hepatocytes, compounds that modulate multiple urea cycle-related genes; assay type: cell-based; conditions: primary human hepatocytes, RNA-seq; for Up-regulated Genes: urea cycle-related genes significantly increased (Table 10)
Procedure: To identify small molecules that modulate urea cycle enzymes, primary human hepatocytes were prepared as a monoculture, and at least one small molecule compound was applied to the cells.
RNA-seq was performed to determine the effects of the compounds on the expression of urea cycle enzymes in hepatocytes. Fold change was calculated by dividing the level of expression in the cell system that had been perturbed by the level of expression in an unperturbed system. Changes in expression having a p-value ≤0.05 were considered significant.
Significance was defined as an FPKM ≥1, a log 2 (fold change) ≥0.5, and a q-value of ≤0.05 for selected gene target.

SLC25A15 = assay: RNA-seq of compound-treated primary human hepatocytes, SLC25A15 expression; assay type: cell-based; conditions: for Relative SLC25A15 level vs Untreated (±Standard Deviation) / Fold change (Log 2) vs untreated, SLC25A15 expression: primary human hepatocytes; for Relative SLC25A15 level vs Untreated (±Standard Deviation): triplicate (Table 24, FIG. 16A-B); for Fold change (Log 2) vs untreated, SLC25A15 expression: RNA-seq (Table 8)
NAGS = assay type: cell-based, human; conditions: for Relative NAGS level vs Untreated (±Standard Deviation): triplicate (Table 21, FIG. 13)
ASS1 = assay: RNA-seq of compound-treated primary human hepatocytes, ASS1 expression; assay type: cell-based; conditions: primary human hepatocytes; for Fold change (Log 2) vs untreated, ASS1 expression: RNA-seq (Table 4); for Relative ASS1 level vs Untreated (±Standard Deviation): triplicate (Table 15, FIG. 7)
ARG1 = assay: RNA-seq of compound-treated primary human hepatocytes, ARG1 expression; assay type: cell-based; conditions: for Relative ARGI level vs Untreated (±Standard Deviation) / Fold change (Log 2) vs untreated, ARG1 expression: primary human hepatocytes; for Relative ARGI level vs Untreated (±Standard Deviation): triplicate (Table 17, FIG. 9); for Fold change (Log 2) vs untreated, ARG1 expression: RNA-seq (Table 7)
CPS1 = assay: RNA-seq of compound-treated primary human hepatocytes, CPS1 expression; assay type: cell-based; conditions: primary human hepatocytes, RNA-seq
[1] = primary human hepatocytes, RNA-seq (Table 6)
[2] = 0.3 μM, primary human hepatocytes
[3] = Example 11, relative mRNA vs DMSO

COc1cc(Nc2ncc(F)c(Nc3ccc4c(n3)N(COP(=O)(O)O)C(=O)C(C)(C)O4)n2)cc(OC)c1OC [R788 (fostamatinib disodium hexahydrate), fostamatinib disodium hexahydrate]
number of urea cycle genes whose expression was significantly up-regulated (urea cycle genes): three
Up-regulated Genes (urea cycle genes): CPS1, ARG1, SLC25A15

O=C(NOCCO)c1cc(CN2OCCCC2=O)c(F)c(F)c1Nc1ccc(I)cc1F [RO4987655)]
Relative SLC25A15 level vs Untreated (±Standard Deviation) (SLC25A15; 10 μM): 1.31 ± 0.13

O=C(NCCCn1ccnc1)c1cc(-c2ccco2)on1 [SKL2001]
Fold change (Log 2) vs untreated, NAGS expression (NAGS): 0.95 Log 2

O=C1NC(=O)/C(=C/c2cccc(C(F)(F)F)c2)S1 [SMI-4a]
Fold change (Log 2) vs untreated, ASS1 expression (ASS1): 0.69 Log 2
Fold change (Log 2) vs untreated, NAGS expression (NAGS): 1.25 Log 2

Cc1cc(C)c(/C=C2\C(=O)Nc3ccccc32)[nH]1 [Semaxanib]
Fold change (Log 2) vs untreated, NAGS expression (NAGS; [1]): 2 Log 2

CCN(CC)CCNC(=O)c1c(C)[nH]c(/C=C2\C(=O)Nc3ccc(F)cc32)c1C [Sunitinib]
Relative ASS1 level vs Untreated (±Standard Deviation) (ASS1; 3 μM): 2.25 ± 0.45
Relative ASS1 level vs Untreated (±Standard Deviation) (ASS1; 10 μM): 2.70 ± 0.37
Relative NAGS level vs Untreated (±Standard Deviation) (NAGS; [2]): 1.40 ± 0.03
Relative NAGS level vs Untreated (±Standard Deviation) (NAGS; 1 μM, primary human hepatocytes): 1.63 ± 0.42
Relative ARGI level vs Untreated (±Standard Deviation) (ARG1; 10 μM): 1.36 ± 0.01
Relative SLC25A15 level vs Untreated (±Standard Deviation) (SLC25A15; 0.3 μM): 1.32 ± 0.08
Relative SLC25A15 level vs Untreated (±Standard Deviation) (SLC25A15; 3 μM): 2.36 ± 0.20
Relative SLC25A15 level vs Untreated (±Standard Deviation) (SLC25A15; 10 μM): 2.43 ± 0.29

CN1CCN(CCCN2c3ccccc3Sc3ccc(C(F)(F)F)cc32)CC1 [TFP, Trifluoperazine]
Fold change (Log 2) vs untreated, NAGS expression (NAGS; [1]): 0.58 Log 2

CN(C)[C@@H]1C(O)=C(C(N)=O)C(=O)[C@@]2(O)C(O)=C3C(=O)c4c(O)c(NC(=O)CN5CCCC5)cc(F)c4C[C@H]3C[C@@H]12 [TP-434 (Eravacycline), Eravacycline]
Fold change (Log 2) vs untreated, ASS1 expression (ASS1): 0.76 Log 2
Fold change (Log 2) vs untreated, NAGS expression (NAGS; [1]): 1.5 Log 2

O=C1CCC(N2C(=O)c3ccccc3C2=O)C(=O)N1 (centres unmarked) [Thalidomide]
Fold change (Log 2) vs untreated, NAGS expression (NAGS; [1]): 1.1 Log 2
number of urea cycle genes whose expression was significantly up-regulated (urea cycle genes): five
Up-regulated Genes (urea cycle genes): NAGS, CPS1, ALS, OTC, ARG1

CCn1c(=O)c(-c2cc[nH]n2)cc2c(C)nc(N)nc21 [Voxtalisib]
Relative ASS1 level vs Untreated (±Standard Deviation) (ASS1; 10 μM): 1.43 ± 0.13
Relative NAGS level vs Untreated (±Standard Deviation) (NAGS; [2]): 1.35 ± 0.04
Relative NAGS level vs Untreated (±Standard Deviation) (NAGS; 3 μM, primary human hepatocytes): 1.33 ± 0.15
Relative NAGS level vs Untreated (±Standard Deviation) (NAGS; 10 μM, primary human hepatocytes): 1.78 ± 0.04
Relative ARGI level vs Untreated (±Standard Deviation) (ARG1; 3 μM): 1.34 ± 0.16
Relative ARGI level vs Untreated (±Standard Deviation) (ARG1; 10 μM): 1.48 ± 0.18

CC(C)c1cc(CNc2nc(Nc3cc(C4CC4)[nH]n3)cc(N3CCN(C)CC3)n2)on1 [XL228]
Relative ASS1 level vs Untreated (±Standard Deviation) (ASS1; 1 μM): 1.83 ± 0.02
Relative ASS1 level vs Untreated (±Standard Deviation) (ASS1; 3 μM): 1.45 ± 0.10
Relative ASS1 level vs Untreated (±Standard Deviation) (ASS1; 10 μM): 2.05 ± 0.00
Relative ARGI level vs Untreated (±Standard Deviation) (ARG1; 0.3 μM): 1.47 ± 0.11
Relative ARGI level vs Untreated (±Standard Deviation) (ARG1; 1 μM): 2.05 ± 0.11
Relative ARGI level vs Untreated (±Standard Deviation) (ARG1; 3 μM): 2.15 ± 0.04
increase in ARG1 gene expression (Tables 17, 18, FIG. 9, 10) (ARG1; [3]): greatest increase
Increase in SLC25A15 gene expression (qualitative) (SLC25A15; [3]): greatest increase

COc1nc(N)nc2c1ncn2[C@@H]1O[C@H](COP(=O)(N[C@@H](C)C(=O)OCC(C)(C)C)Oc2cccc3ccccc23)[C@@H](O)[C@@]1(C)O (some centres unmarked) [bms-986094 (inx-189)]
Fold change (Log 2) vs untreated, SLC25A15 expression (SLC25A15): 1.18 Log 2

C[C@]12C=CC(=O)C=C1CC[C@@H]1[C@@H]2C(=O)C[C@@]2(C)[C@H]1CC[C@]2(O)C(=O)CO [prednisone]
Fold change (Log 2) vs untreated, NAGS expression (NAGS; [1]): 1 Log 2
number of urea cycle genes whose expression was significantly up-regulated (urea cycle genes): three
Up-regulated Genes (urea cycle genes): CPS1, NAGS, ARG1

CC(=O)CC(c1ccccc1)c1c(O)c2ccccc2oc1=O (centres unmarked) [wafarin]
Relative ARGI level vs Untreated (±Standard Deviation) (ARG1; 10 μM): 1.33 ± 0.62

TNF-a
Fold change (Log 2) vs untreated, ARG1 expression (ARG1): 1.87 Log 2

B1: GDF10 (BMP3b): member of the BMP family and the TGF-B superfamily (protein, UniProt P55107 369-478, looked up)
Growth/differentiation factor …: QWDEPRVCSRRYLKVDFADIGWNEWIISPKSFDAYYCAGACEFPMPKIVRPSNHATIQSIVRAVGIIPGIPEPCCVPDKMNSLGVLFLDENRNVVLKVYPNMSVDTCACR
CPS1 expression, Fold change (Log 2) vs untreated (CPS1): 1.66 Log 2

B2: GDF 10 (BMP3b) (protein, UniProt P55107 369-478, looked up)
Growth/differentiation factor …: QWDEPRVCSRRYLKVDFADIGWNEWIISPKSFDAYYCAGACEFPMPKIVRPSNHATIQSIVRAVGIIPGIPEPCCVPDKMNSLGVLFLDENRNVVLKVYPNMSVDTCACR
Fold change (Log 2) vs untreated, ARG1 expression (ARG1): 0.97 Log 2

B3: Wnt3 a (protein, UniProt P56704 19-352, looked up)
Protein Wnt-3a: SYPIWWSLAVGPQYSSLGSQPILCASIPGLVPKQLRFCRNYVEIMPSVAEGIKIGIQECQHQFRGRRWNCTTVHDSLAIFGPVLDKATRESAFVHAIASAGVAFAVTRSCAEGTAAICGCSSRHQGSPGKGWKWGGCSEDIEFGGMVSREFADARENRPDARSAMNRHNNEAGRQAIASHMHLKCKCHGLSGSCEVKTCWWSQPDFRAIGDFLKDKYDSASEMVVEKHRESRGWVETLRPRYTYFKVPTERDLVYYEASPNFCEPNPETGSFGTRDRTCNVSSHGIDGCDLLCCGRGHNARAERRREKCRCVFHWCCYVSCQECTRVYDVHTCK
Fold change (Log 2) vs untreated, SLC25A15 expression (SLC25A15): 0.7 Log 2
